System: NCI-H1876 complex spheroid viability
Assay: Anticancer human tumor NCI-H1876 cell line growth inhibition [LSD1];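 note: spheroids exposed to compounds for one week before readout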;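 for viability, T/C: 100% = DMSO vehicle-treated spheroids so lower means fewer viable cells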
Conditions: for IC50: curve of first compound; for viability, T/C: stronger effect = lower value
Procedure, shortened: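 Drug combinations with the LSD1 inhibitor iadademstat tested on tumor cells co-cultured as spheroids with endothelial cells and mesenchymal stem cells. Concentrations descended in half-log increments from clinical Cmax or 10 microM.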

[1] = second compound 0.1 µM, first compound 0.000316 µM
[2] = second compound 0.1 µM, first compound 0.001 µM
[3] = second compound 0.1 µM, first compound 0.00316 µM
[4] = second compound 0.1 µM, first compound 0.01 µM
[5] = second compound 0.1 µM, first compound 0.0316 µM
[6] = second compound 0.1 µM, first compound 0.1 µM
[7] = second compound 0.316 µM, first compound 0.000316 µM
[8] = second compound 0.316 µM, first compound 0.001 µM
[9] = second compound 0.316 µM, first compound 0.00316 µM
[10] = second compound 0.316 µM, first compound 0.01 µM
[11] = second compound 0.316 µM, first compound 0.0316 µM
[12] = second compound 0.316 µM, first compound 0.1 µM
[13] = second compound 1 µM, first compound 0.000316 µM
[14] = second compound 1 µM, first compound 0.001 µM
[15] = second compound 1 µM, first compound 0.00316 µM
[16] = second compound 1 µM, first compound 0.01 µM
[17] = second compound 1 µM, first compound 0.0316 µM
[18] = second compound 1 µM, first compound 0.1 µM
[19] = second compound 3.16 µM, first compound 0.000316 µM
[20] = second compound 3.16 µM, first compound 0.001 µM
[21] = second compound 3.16 µM, first compound 0.00316 µM
[22] = second compound 3.16 µM, first compound 0.01 µM
[23] = second compound 3.16 µM, first compound 0.0316 µM
[24] = second compound 3.16 µM, first compound 0.1 µM
[25] = second compound 10 µM, first compound 0.000316 µM
[26] = second compound 10 µM, first compound 0.001 µM
[27] = second compound 10 µM, first compound 0.00316 µM
[28] = second compound 10 µM, first compound 0.01 µM
[29] = second compound 10 µM, first compound 0.0316 µM
[30] = second compound 10 µM, first compound 0.1 µM
[31] = second compound 0.1 µM, first compound 0.00949 µM
[32] = second compound 0.1 µM, first compound 0.03 µM
[33] = second compound 0.1 µM, first compound 0.0949 µM
[34] = second compound 0.1 µM, first compound 0.3 µM
[35] = second compound 0.1 µM, first compound 0.949 µM
[36] = second compound 0.1 µM, first compound 3 µM
[37] = second compound 0.316 µM, first compound 0.00949 µM
[38] = second compound 0.316 µM, first compound 0.03 µM
[39] = second compound 0.316 µM, first compound 0.0949 µM
[40] = second compound 0.316 µM, first compound 0.3 µM
[41] = second compound 0.316 µM, first compound 0.949 µM
[42] = second compound 0.316 µM, first compound 3 µM
[43] = second compound 1 µM, first compound 0.00949 µM
[44] = second compound 1 µM, first compound 0.03 µM
[45] = second compound 1 µM, first compound 0.0949 µM
[46] = second compound 1 µM, first compound 0.3 µM
[47] = second compound 1 µM, first compound 0.949 µM
[48] = second compound 1 µM, first compound 3 µM
[49] = second compound 3.16 µM, first compound 0.00949 µM
[50] = second compound 3.16 µM, first compound 0.03 µM
[51] = second compound 3.16 µM, first compound 0.0949 µM
[52] = second compound 3.16 µM, first compound 0.3 µM
[53] = second compound 3.16 µM, first compound 0.949 µM
[54] = second compound 3.16 µM, first compound 3 µM
[55] = second compound 10 µM, first compound 0.00949 µM
[56] = second compound 10 µM, first compound 0.03 µM
[57] = second compound 10 µM, first compound 0.0949 µM
[58] = second compound 10 µM, first compound 0.3 µM
[59] = second compound 10 µM, first compound 0.949 µM
[60] = second compound 10 µM, first compound 3 µM

SMILES: CC(C)CC(NC(=O)C(Cc1ccccc1)NC(=O)c1cnccn1)B(O)O (stereo not given) + NC1CC1c1ccc(-c2cccc(O)c2)cc1
- IC50 (second compound 0.1 µM): 0.406 nM
- IC50 (second compound 0.316 µM): 0.444 nM
- IC50 (second compound 1 µM): 0.446 nM
- IC50 (second compound 3.16 µM): 0.374 nM
- IC50 (second compound 10 µM): < 0.316 nM
- viability, T/C [1]: 63.8%
- viability, T/C [2]: 0.34%
- viability, T/C [3]: 0.19%
- viability, T/C [4]: 0.14%
- viability, T/C [5]: 0.14%
- viability, T/C [6]: 0.24%
- viability, T/C [7]: 70.6%
- viability, T/C [8]: 0.44%
- viability, T/C [9]: 0.17%
- viability, T/C [10]: 0.12%
- viability, T/C [11]: 0.15%
- viability, T/C [12]: 0.21%
- viability, T/C [13]: 71.2%
- viability, T/C [14]: 0.42%
- viability, T/C [15]: 0.22%
- viability, T/C [16]: 0.31%
- viability, T/C [17]: 0.13%
- viability, T/C [18]: 0.22%
- viability, T/C [19]: 58.4%
- viability, T/C [20]: 0.35%
- viability, T/C [21]: 0.22%
- viability, T/C [22]: 0.16%
- viability, T/C [23]: 0.14%
- viability, T/C [24]: 0.24%
- viability, T/C [25]: 41.6%
- viability, T/C [26]: 0.43%
- viability, T/C [27]: 0.48%
- viability, T/C [28]: 0.28%
- viability, T/C [29]: 0.26%
- viability, T/C [30]: 0.34%

SMILES: CC(C)CC(NC(=O)CNC(=O)c1cc(Cl)ccc1Cl)B1OC(=O)CC(CC(=O)O)(C(=O)O)O1 (stereo not given) + NC1CC1c1ccc(-c2cccc(O)c2)cc1
- IC50 (second compound 0.1 µM): 7.7 nM
- IC50 (second compound 0.316 µM): 7.44 nM
- IC50 (second compound 1 µM): 7.44 nM
- IC50 (second compound 3.16 µM): 7.35 nM
- IC50 (second compound 10 µM): 6.63 nM
- viability, T/C [1]: 98.9%
- viability, T/C [2]: 103%
- viability, T/C [3]: 105%
- viability, T/C [4]: 34.6%
- viability, T/C [5]: 1.61%
- viability, T/C [6]: 0.3%
- viability, T/C [7]: 108%
- viability, T/C [8]: 101%
- viability, T/C [9]: 97.3%
- viability, T/C [10]: 33.7%
- viability, T/C [11]: 1.47%
- viability, T/C [12]: 0.31%
- viability, T/C [13]: 105%
- viability, T/C [14]: 103%
- viability, T/C [15]: 102%
- viability, T/C [16]: 32.1%
- viability, T/C [17]: 1.86%
- viability, T/C [18]: 0.31%
- viability, T/C [19]: 110%
- viability, T/C [20]: 106%
- viability, T/C [21]: 98.4%
- viability, T/C [22]: 32.5%
- viability, T/C [23]: 1.08%
- viability, T/C [24]: 0.3%
- viability, T/C [25]: 103%
- viability, T/C [26]: 102%
- viability, T/C [27]: 87%
- viability, T/C [28]: 29.6%
- viability, T/C [29]: 0.75%
- viability, T/C [30]: 0.39%

SMILES: Nc1ccccc1NC(=O)c1ccc(CNC(=O)OCc2cccnc2)cc1 + NC1CC1c1ccc(-c2cccc(O)c2)cc1
- IC50 (second compound 0.1 µM): 81 nM
- IC50 (second compound 0.316 µM): 66.8 nM
- IC50 (second compound 1 µM): 61.5 nM
- IC50 (second compound 3.16 µM): 65.2 nM
- IC50 (second compound 10 µM): 68.2 nM
- viability, T/C [31]: 91.1%
- viability, T/C [32]: 88.8%
- viability, T/C [33]: 43.1%
- viability, T/C [34]: 9.94%
- viability, T/C [35]: 2.94%
- viability, T/C [36]: 0.49%
- viability, T/C [37]: 83.6%
- viability, T/C [38]: 71.9%
- viability, T/C [39]: 40.9%
- viability, T/C [40]: 9.16%
- viability, T/C [41]: 3.03%
- viability, T/C [42]: 0.41%
- viability, T/C [43]: 85.1%
- viability, T/C [44]: 75.5%
- viability, T/C [45]: 34.4%
- viability, T/C [46]: 8.61%
- viability, T/C [47]: 2.73%
- viability, T/C [48]: 0.38%
- viability, T/C [49]: 84.6%
- viability, T/C [50]: 76%
- viability, T/C [51]: 37.3%
- viability, T/C [52]: 8.61%
- viability, T/C [53]: 2.69%
- viability, T/C [54]: 0.45%
- viability, T/C [55]: 78.6%
- viability, T/C [56]: 70.5%
- viability, T/C [57]: 41.5%
- viability, T/C [58]: 13.3%
- viability, T/C [59]: 2.64%
- viability, T/C [60]: 0.52%

SMILES: O=C(C=Cc1cccc(S(=O)(=O)Nc2ccccc2)c1)NO + NC1CC1c1ccc(-c2cccc(O)c2)cc1
- IC50 (second compound 0.1 µM): 165 nM
- IC50 (second compound 0.316 µM): 165 nM
- IC50 (second compound 1 µM): 171 nM
- IC50 (second compound 3.16 µM): 178 nM
- IC50 (second compound 10 µM): 157 nM
- viability, T/C [31]: 110%
- viability, T/C [32]: 111%
- viability, T/C [33]: 81.1%
- viability, T/C [34]: 16.3%
- viability, T/C [35]: 6.97%
- viability, T/C [36]: 0.3%
- viability, T/C [37]: 107%
- viability, T/C [38]: 115%
- viability, T/C [39]: 80.4%
- viability, T/C [40]: 16.8%
- viability, T/C [41]: 5.12%
- viability, T/C [42]: 0.27%
- viability, T/C [43]: 114%
- viability, T/C [44]: 109%
- viability, T/C [45]: 85.6%
- viability, T/C [46]: 15.9%
- viability, T/C [47]: 5.57%
- viability, T/C [48]: 0.28%
- viability, T/C [49]: 111%
- viability, T/C [50]: 111%
- viability, T/C [51]: 87.8%
- viability, T/C [52]: 18.4%
- viability, T/C [53]: 5.71%
- viability, T/C [54]: 0.36%
- viability, T/C [55]: 108%
- viability, T/C [56]: 102%
- viability, T/C [57]: 71.7%
- viability, T/C [58]: 21.7%
- viability, T/C [59]: 5.51%
- viability, T/C [60]: 0.42%
